Assay results as given in PMC6499206, “Quantification of Volatile Metabolites Derived From Garlic (Allium sativum) in Human Urine” (Frontiers in Nutrition, 2019).

Test: Quantification of garlic-derived metabolites in human urine after ingestion of 3 g raw garlic (SIDA, SAFE, HRGC-MS / HRGC-GC-MS)
Type: in vivo
Settings: 3 g raw garlic
Description: Human urine samples were obtained from 18 volunteers (age 22–38 years, mean 27 years; 11 females, 7 males); thereby, one volunteer conducted the whole experimental series twice. At the time of examination, volunteers reported no known illness that might have potentially influenced the metabolism or the excretion of urine. The test persons were instructed to avoid foods that were rich in sulfur-containing substances at the testing day as well as 2 days preceding the testing day, namely garlic, onion, wild garlic, chives, cabbage, and leek, and were only allowed to consume the garlic sample provided in the course of the experiments. Additionally, subjects were asked to keep records of the food (including food supplements) and beverages they consumed during these 3 testing days. Generally, the overall panelists' requirements were in accordance with our previous studies ([5], [16]).
On the sampling day, the outer garlic cloves of a whole garlic bulb were peeled and cut into ~3 mm cubes by using a garlic cutter (Genius GmbH, Limburg/Lahn, Germany). Subsequently these cubes were thoroughly mixed and aliquoted into 3 g portions. Three to four test persons conducted the experiment at the same day. Each test person was asked to ingest a garlic portion of 3 g. In total, eight consecutive urine samples were provided by each test person, comprising one whole urine set. The samples were collected in sterile brown glass bottles, with sampling times as follows: one sample was provided directly prior to garlic consumption. The series of the second to eighth sample was then obtained at about 0.5, 1, 2, 4, 6, 8, and 24 h after garlic consumption, respectively. Between the first urine sample (prior to garlic consumption) and the seventh urine sample (8 h after garlic consumption) test persons only spent urine at the specific time points mentioned before. Another sample was provided at the next morning (24 h after garlic consumption). Between the samples provided 8 and 24 h after garlic consumption no urine was collected. All samples were immediately placed into a −80°C freezer and were kept frozen until further analysis.
The samples of each set were termed according to their sampling time. The following list provides the time intervals that are related to the respective sample name: • - pre: before garlic consumption • - 0.5 h post: 0.4–0.8 h after garlic consumption • - 1 h post: 0.9–1.3 h after garlic consumption • - 2 h post: 1.8 h−2.2 h after garlic consumption • - 4 h post: 3.8–4.4 h after garlic consumption • - 6 h post: 5.8–6.4 h after garlic consumption • - 8 h post: 7.8–8.4 h after garlic consumption • - 24 h post: 23.8–25.6 h after garlic consumption
A creatinine kit (Labor+Technik Eberhard Lehmann GmbH, Berlin, Germany) was used to determine the creatinine content in each urine sample. The determination principle of this kit is based on the reaction of creatinine with picric acid under basic conditions (Jaffé reaction). The formed complex was detected photometrically at a wavelength of 492 nm.
For quantification purposes, the deuterated standards ^2H3-AMS, ^2H3-AMSO, and ^2H3-AMSO2 were added to the sample and stirred for 10 min. Subsequently, DCM was added in a ratio of 1:2 (DCM/human urine; v/v) and this solution was stirred for further 30 min at room temperature. To isolate the volatile fraction from the urine samples we then applied SAFE-distillation ([17]), thereby distilling the respective samples at 50°C. After completion of the distillation process, 10 mL of DCM were applied in each case to rinse the SAFE apparatus and to ensure complete transition of the volatile compounds. This process was repeated with another 10 mL of DCM. After thawing, the obtained aqueous distillate phase was extracted three times with 25 mL DCM. The organic phases were combined, dried over anhydrous Na2SO4 and concentrated to a total volume of 100 μL by means of Vigreux distillation and subsequent micro-distillation at 50°C. […]

metabolite concentration in urine (U VII, 1 h post (1.08 h)): 125.9 µg/kg
metabolite concentration in urine, creatinine-normalized (U VII, 1 h post (1.08 h)): 78.0 µg/mmol creatinine
metabolite concentration in urine (U VII, 2 h post (2.00 h)): 139.9 µg/kg
metabolite concentration in urine, creatinine-normalized (U VII, 2 h post (2.00 h)): 143.4 µg/mmol creatinine
metabolite concentration in urine (U VII, 4 h post (4.00 h)): 170.5 µg/kg
metabolite concentration in urine, creatinine-normalized (U VII, 4 h post (4.00 h)): 105.6 µg/mmol creatinine
metabolite concentration in urine (U VII, 6 h post (6.00 h)): 203.6 µg/kg
metabolite concentration in urine, creatinine-normalized (U VII, 6 h post (6.00 h)): 65.5 µg/mmol creatinine
metabolite concentration in urine (U VII, 8 h post (8.00 h)): 147.2 µg/kg
metabolite concentration in urine, creatinine-normalized (U VII, 8 h post (8.00 h)): 75.5 µg/mmol creatinine
metabolite concentration in urine (U VII, 24 h post (24.00 h)): 15.7 µg/kg
metabolite concentration in urine, creatinine-normalized (U VII, 24 h post (24.00 h)): 4.2 µg/mmol creatinine
metabolite concentration in urine (U VII, pre (-0.25 h)): 7.0 µg/kg
metabolite concentration in urine, creatinine-normalized (U VII, pre (-0.25 h)): 2.0 µg/mmol creatinine
metabolite concentration in urine (U VIII, 0.5 h post (0.52 h)): 112.9 µg/kg
metabolite concentration in urine, creatinine-normalized (U VIII, 0.5 h post (0.52 h)): 143.6 µg/mmol creatinine
metabolite concentration in urine (U VIII, 1 h post (1.08 h)): 256.0 µg/kg
metabolite concentration in urine, creatinine-normalized (U VIII, 1 h post (1.08 h)): 154.0 µg/mmol creatinine
metabolite concentration in urine (U VIII, 2 h post (2.08 h)): 301.1 µg/kg
metabolite concentration in urine, creatinine-normalized (U VIII, 2 h post (2.08 h)): 284.7 µg/mmol creatinine
metabolite concentration in urine (U VIII, 4 h post (4.07 h)): 322.0 µg/kg
metabolite concentration in urine, creatinine-normalized (U VIII, 4 h post (4.07 h)): 152.2 µg/mmol creatinine
metabolite concentration in urine (U VIII, 6 h post (6.08 h)): 348.3 µg/kg
metabolite concentration in urine, creatinine-normalized (U VIII, 6 h post (6.08 h)): 92.2 µg/mmol creatinine
metabolite concentration in urine (U VIII, 8 h post (7.90 h)): 255.0 µg/kg
metabolite concentration in urine, creatinine-normalized (U VIII, 8 h post (7.90 h)): 92.7 µg/mmol creatinine
metabolite concentration in urine (U VIII, 24 h post (23.83 h)): 48.3 µg/kg
metabolite concentration in urine, creatinine-normalized (U VIII, 24 h post (23.83 h)): 18.1 µg/mmol creatinine
metabolite concentration in urine (U VIII, pre (-0.33 h)): 97.6 µg/kg
metabolite concentration in urine, creatinine-normalized (U VIII, pre (-0.33 h)): 21.82 µg/mmol creatinine
metabolite concentration in urine (U X, 0.5 h post (0.53 h)): 15.5 µg/kg
metabolite concentration in urine, creatinine-normalized (U X, 0.5 h post (0.53 h)): 8.0 µg/mmol creatinine
metabolite concentration in urine (U X, 1 h post (1.03 h)): 27.7 µg/kg
metabolite concentration in urine, creatinine-normalized (U X, 1 h post (1.03 h)): 35.2 µg/mmol creatinine
metabolite concentration in urine (U X, 2 h post (2.03 h)): 48.6 µg/kg
metabolite concentration in urine, creatinine-normalized (U X, 2 h post (2.03 h)): 72.3 µg/mmol creatinine
metabolite concentration in urine (U X, 4 h post (3.85 h)): 79.1 µg/kg
metabolite concentration in urine, creatinine-normalized (U X, 4 h post (3.85 h)): 60.1 µg/mmol creatinine
metabolite concentration in urine (U X, 6 h post (5.80 h)): 89.3 µg/kg
metabolite concentration in urine, creatinine-normalized (U X, 6 h post (5.80 h)): 37.7 µg/mmol creatinine
metabolite concentration in urine (U X, 8 h post (7.75 h)): 85.2 µg/kg
metabolite concentration in urine, creatinine-normalized (U X, 8 h post (7.75 h)): 36.5 µg/mmol creatinine
metabolite concentration in urine (U X, 24 h post (23.97 h)): 53.0 µg/kg
metabolite concentration in urine, creatinine-normalized (U X, 24 h post (23.97 h)): 4.9 µg/mmol creatinine
metabolite concentration in urine (U X, pre (-0.07 h)): < LOD^3
metabolite concentration in urine, creatinine-normalized (U X, pre (-0.07 h)): < LOD^3
metabolite concentration in urine (U XI, 0.5 h post (0.50 h)): 27.5 µg/kg
metabolite concentration in urine, creatinine-normalized (U XI, 0.5 h post (0.50 h)): 33.4 µg/mmol creatinine
metabolite concentration in urine (U XI, 1 h post (1.02 h)): 65.7 µg/kg
metabolite concentration in urine, creatinine-normalized (U XI, 1 h post (1.02 h)): 82.6 µg/mmol creatinine
metabolite concentration in urine (U XI, 2 h post (2.00 h)): 93.5 µg/kg
metabolite concentration in urine, creatinine-normalized (U XI, 2 h post (2.00 h)): 122.1 µg/mmol creatinine
metabolite concentration in urine (U XI, pre (-0.08 h)): 9.0 µg/kg
metabolite concentration in urine, creatinine-normalized (U XI, pre (-0.08 h)): 2.6 µg/mmol creatinine
metabolite concentration in urine (U XII, 0.5 h post (0.48 h)): 17.3 µg/kg
metabolite concentration in urine, creatinine-normalized (U XII, 0.5 h post (0.48 h)): 2.3 µg/mmol creatinine
metabolite concentration in urine (U XII, 1 h post (1.03 h)): 33.1 µg/kg
metabolite concentration in urine, creatinine-normalized (U XII, 1 h post (1.03 h)): 33.6 µg/mmol creatinine
SMILES: C=CCS(C)(=O)=O [AMSO2, allyl methyl sulfone]
